{"source": "patent US12077503B2", "about": "“Substituted cyclic amides and their use as herbicides” (FMC CORPORATION, priority 2015, dated 2024)", "assay_type_in_all_cases": "in vivo", "key": {"Kochia (Kochia scoparia) [1]": {"tested_on": "Kochia (Kochia scoparia)", "assay": "Test A preemergence", "conditions": "Bassia scoparia, pre-emergence, 240 h, 0 to 100 scale where 0 is no effect and 100 is complete control, read-out: Kochia plant response rating", "summary_of_the_method": "(§1)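 Visual injury scores from 0, no effect, to 100, complete control, were assigned versus untreated controls roughly 10 d after treatment in the greenhouse. Test chemicals, formulated with surfactant in a non-phytotoxic solvent, were applied to planted seeds as a preemergence soil spray or postemergence to one- to two-leaf plants 2 to 10 cm tall, in loam–sand soil.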"}, "[2]": {"tested_on": "barnyardgrass (Echinochloa crus-galli)", "assay": "Test A preemergence", "conditions": "Echinochloa crus-galli, pre-emergence, 240 h, 0 to 100 scale where 0 is no effect and 100 is complete control, read-out: Barnyardgrass plant response rating", "summary_of_the_method": "as §1"}, "[3]": {"tested_on": "giant foxtail (Setaria faberii)", "assay": "Test A preemergence", "conditions": "Setaria faberi, pre-emergence, 240 h, 0 to 100 scale where 0 is no effect and 100 is complete control, read-out: Foxtail, Giant plant response rating", "summary_of_the_method": "as §1"}, "[4]": {"tested_on": "pigweed (Amaranthus retroflexus)", "assay": "Test A preemergence", "conditions": "Amaranthus retroflexus, pre-emergence, 240 h, 0 to 100 scale where 0 is no effect and 100 is complete control, read-out: Pigweed plant response rating"}, "[5]": {"tested_on": "ragweed (common ragweed, Ambrosia elatior)", "assay": "Test A preemergence", "conditions": "Ambrosia artemisiifolia, pre-emergence, 240 h, 0 to 100 scale where 0 is no effect and 100 is complete control, read-out: Ragweed plant response rating", "summary_of_the_method": "as §1"}, "[6]": {"tested_on": "ryegrass, Italian (Italian ryegrass, Lolium multiflorum)", "assay": "Test A preemergence", "conditions": "Lolium multiflorum, pre-emergence, 240 h, 0 to 100 scale where 0 is no effect and 100 is complete control, read-out: Ryegrass, Italian plant response rating", "summary_of_the_method": "as §1"}, "[7]": {"tested_on": "Galium (catchweed bedstraw, Galium aparine)", "assay": "Test A postemergence", "conditions": "Galium, post-emergence, 240 h", "summary_of_the_method": "as §1"}, "Kochia (Kochia scoparia) [8]": {"tested_on": "Kochia (Kochia scoparia)", "assay": "Test A postemergence", "conditions": "Bassia scoparia, post-emergence, 240 h", "summary_of_the_method": "as §1"}, "[9]": {"tested_on": "barnyardgrass (Echinochloa crus-galli)", "assay": "Test A postemergence", "conditions": "Echinochloa crus-galli, post-emergence, 240 h", "summary_of_the_method": "as §1"}, "[10]": {"tested_on": "blackgrass (Alopecurus myosuroides)", "assay": "Test A postemergence", "conditions": "Alopecurus myosuroides, post-emergence, 240 h", "summary_of_the_method": "as §1"}, "corn (Zea mays)": {"tested_on": "corn (Zea mays)", "assay": "Test A postemergence", "conditions": "Zea mays, post-emergence, 240 h", "summary_of_the_method": "as §1"}, "[11]": {"tested_on": "giant foxtail (Setaria faberii)", "assay": "Test A postemergence", "conditions": "Setaria faberi, post-emergence, 240 h", "summary_of_the_method": "as §1"}, "[12]": {"tested_on": "pigweed (Amaranthus retroflexus)", "assay": "Test A postemergence", "conditions": "Amaranthus retroflexus, post-emergence, 240 h, 125 g ai/ha, postemergence, visual injury vs untreated controls after approx. 10 d; 0 = no effect, 100 = complete control; read-out: Pigweed plant response rating (0 to 100 scale)", "summary_of_the_method": "as §1"}, "[13]": {"tested_on": "ragweed (common ragweed, Ambrosia elatior)", "assay": "Test A postemergence", "conditions": "Ambrosia artemisiifolia, post-emergence, 240 h, 125 g ai/ha, postemergence, visual injury vs untreated controls after approx. 10 d; 0 = no effect, 100 = complete control; read-out: Ragweed plant response rating (0 to 100 scale)", "summary_of_the_method": "as §1"}, "[14]": {"tested_on": "ryegrass, Italian (Italian ryegrass, Lolium multiflorum)", "assay": "Test A postemergence", "conditions": "Lolium multiflorum, post-emergence, 240 h, 125 g ai/ha, postemergence, visual injury vs untreated controls after approx. 10 d; 0 = no effect, 100 = complete control; read-out: Ryegrass, Italian plant response rating (0 to 100 scale)", "summary_of_the_method": "as §1"}, "[15]": {"tested_on": "wheat (Triticum aestivum)", "assay": "Test A postemergence", "conditions": "Triticum aestivum, post-emergence, 240 h, 125 g ai/ha, postemergence, visual injury vs untreated controls after approx. 10 d; 0 = no effect, 100 = complete control; read-out: Wheat plant response rating (0 to 100 scale)", "summary_of_the_method": "as §1"}, "[16]": {"tested_on": "barnyardgrass (Echinochloa crus-galli)", "assay": "Test B flooded paddy test", "conditions": "Echinochloa crus-galli, 250 g ai/ha, Flood; 0 to 100 scale where 0 is no effect and 100 is complete control; read-out: Barnyardgrass plant response rating", "summary_of_the_method": "(§2)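 Compound goes directly into floodwater once pots are flooded 3 cm above soil, targeting plants at two leaves; the water depth is then held for the test duration. Plants sit 13–15 d in a greenhouse and are rated visually, 100 denoting complete control.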"}, "[17]": {"tested_on": "ducksalad (Heteranthera limosa)", "assay": "Test B flooded paddy test", "conditions": "Heteranthera limosa, 250 g ai/ha, Flood; 0 to 100 scale where 0 is no effect and 100 is complete control; read-out: Ducksalad plant response rating", "summary_of_the_method": "as §2"}, "rice (Oryra sativa)": {"tested_on": "rice (Oryra sativa)", "assay": "Test B flooded paddy test", "conditions": "Oryza sativa, 250 g ai/ha, Flood; 0 to 100 scale where 0 is no effect and 100 is complete control; read-out: Rice plant response rating", "summary_of_the_method": "as §2"}, "[18]": {"tested_on": "sedge, umbrella (small-flower umbrella sedge, Cyperus difformis)", "assay": "Test B flooded paddy test", "conditions": "Cyperus difformis, 250 g ai/ha, Flood; 0 to 100 scale where 0 is no effect and 100 is complete control; read-out: Sedge, Umbrella plant response rating", "summary_of_the_method": "as §2"}, "[19]": {"conditions": "125 g ai/ha, preemergence, approx. 10 d"}}, "data": [{"smiles": "CON1CC[C@H](c2cccc(C(F)(F)F)c2)[C@@H](C(=O)Nc2cccc(F)c2F)C1=O", "note": "[Compound 1169]", "values": [{"measurement": "pest or weed control at 31 g/ha", "setting": "Kochia (Kochia scoparia) [1]; 31 g ai/ha, Preemergence", "value": 30, "unit": "%"}, {"measurement": "pest or weed control at 125 g/ha", "setting": "Kochia (Kochia scoparia) [1]; [19]", "value": 30, "unit": "%"}, {"measurement": "pest or weed control at 31 g/ha", "setting": "[2]; 31 g ai/ha, Preemergence", "value": 70, "unit": "%"}, {"measurement": "pest or weed control at 125 g/ha", "setting": "[2]; [19]", "value": 90, "unit": "%"}, {"measurement": "pest or weed control at 31 g/ha", "setting": "[3]; 31 g ai/ha, Preemergence", "value": 70, "unit": "%"}, {"measurement": "pest or weed control at 125 g/ha", "setting": "[3]; [19]", "value": 90, "unit": "%"}, {"measurement": "pest or weed control at 31 g/ha", "setting": "[4]; 31 g ai/ha, Preemergence", "value": 0, "unit": "%"}, {"measurement": "pest or weed control at 125 g/ha", "setting": "[4]; [19]", "value": 0, "unit": "%"}, {"measurement": "pest or weed control at 31 g/ha", "setting": "[5]; 31 g ai/ha, Preemergence", "value": 0, "unit": "%"}, {"measurement": "pest or weed control at 125 g/ha", "setting": "[5]; [19]", "value": 0, "unit": "%"}, {"measurement": "pest or weed control at 31 g/ha", "setting": "[6]; 31 g ai/ha, Preemergence", "value": 0, "unit": "%"}, {"measurement": "pest or weed control at 125 g/ha", "setting": "[6]; [19]", "value": 0, "unit": "%"}, {"measurement": "pest or weed control at 125 g/ha", "setting": "[7]; 125 g ai/ha, postemergence, visual injury vs untreated controls after approx. 10 d, 0 = no effect, 100 = complete control, read-out: Galium plant response rating (0 to 100 scale)", "value": 0, "unit": "%"}, {"measurement": "pest or weed control at 31 g/ha", "setting": "[7]; Postemergence, 31 g ai/ha, visual injury after approx. 10 d, 0 to 100 scale, 0 no effect, 100 complete control, read-out: Plant response rating, Galium", "value": 0, "unit": "%"}, {"measurement": "pest or weed control at 125 g/ha", "setting": "Kochia (Kochia scoparia) [8]; 125 g ai/ha, postemergence, visual injury vs untreated controls after approx. 10 d, 0 = no effect, 100 = complete control, read-out: Kochia plant response rating (0 to 100 scale)", "value": 20, "unit": "%"}, {"measurement": "pest or weed control at 31 g/ha", "setting": "Kochia (Kochia scoparia) [8]; Postemergence, 31 g ai/ha, visual injury after approx. 10 d, 0 to 100 scale, 0 no effect, 100 complete control, read-out: Plant response rating, Kochia", "value": 0, "unit": "%"}, {"measurement": "pest or weed control at 125 g/ha", "setting": "[9]; 125 g ai/ha, postemergence, visual injury vs untreated controls after approx. 10 d, 0 = no effect, 100 = complete control, read-out: Barnyardgrass plant response rating (0 to 100 scale)", "value": 80, "unit": "%"}, {"measurement": "pest or weed control at 31 g/ha", "setting": "[9]; Postemergence, 31 g ai/ha, visual injury after approx. 10 d, 0 to 100 scale, 0 no effect, 100 complete control, read-out: Plant response rating, Barnyardgrass", "value": 30, "unit": "%"}, {"measurement": "pest or weed control at 125 g/ha", "setting": "[10]; 125 g ai/ha, postemergence, visual injury vs untreated controls after approx. 10 d, 0 = no effect, 100 = complete control, read-out: Blackgrass plant response rating (0 to 100 scale)", "value": 0, "unit": "%"}, {"measurement": "pest or weed control at 31 g/ha", "setting": "[10]; Postemergence, 31 g ai/ha, visual injury after approx. 10 d, 0 to 100 scale, 0 no effect, 100 complete control, read-out: Plant response rating, Blackgrass", "value": 0, "unit": "%"}, {"measurement": "plant injury at 125 g/ha", "setting": "corn (Zea mays); 125 g ai/ha, postemergence, visual injury vs untreated controls after approx. 10 d, 0 = no effect, 100 = complete control, read-out: Corn plant response rating (0 to 100 scale)", "value": 0, "unit": "%"}, {"measurement": "Corn plant response rating (crop injury, 0 = no effect, 100 = complete kill) at 31 g/ha", "setting": "corn (Zea mays); Postemergence, 31 g ai/ha, visual injury after approx. 10 d, 0 to 100 scale, 0 no effect, 100 complete control", "value": 0, "unit": "%"}, {"measurement": "pest or weed control at 125 g/ha", "setting": "[11]; 125 g ai/ha, postemergence, visual injury vs untreated controls after approx. 10 d, 0 = no effect, 100 = complete control, read-out: Foxtail, Giant plant response rating (0 to 100 scale)", "value": 70, "unit": "%"}, {"measurement": "pest or weed control at 31 g/ha", "setting": "[11]; Postemergence, 31 g ai/ha, visual injury after approx. 10 d, 0 to 100 scale, 0 no effect, 100 complete control, read-out: Plant response rating, Foxtail, Giant", "value": 30, "unit": "%"}, {"measurement": "pest or weed control at 125 g/ha", "setting": "[12]", "value": 0, "unit": "%"}, {"measurement": "pest or weed control at 125 g/ha", "setting": "[13]", "value": 0, "unit": "%"}, {"measurement": "pest or weed control at 125 g/ha", "setting": "[14]", "value": 0, "unit": "%"}, {"measurement": "plant injury at 125 g/ha", "setting": "[15]", "value": 0, "unit": "%"}, {"measurement": "pest or weed control at 250 g/ha", "setting": "[16]", "value": 0, "unit": "%"}, {"measurement": "pest or weed control at 250 g/ha", "setting": "[17]", "value": 0, "unit": "%"}, {"measurement": "pest or weed control at 250 g/ha", "setting": "rice (Oryra sativa)", "value": 0, "unit": "%"}, {"measurement": "pest or weed control at 250 g/ha", "setting": "[18]", "value": 0, "unit": "%"}]}]}
